Activity calls are given as the source filed them.
Experiments:
[1] = molecular target: T1, Adenosylmethionine-8-amino-7-oxononanoate aminotransferase (Mycobacterium tuberculosis, UniProt P9WQ81); assay: Mycobacterium tuberculosis BioA enzyme inhibitor Measured in Biochemical System Using Plate Reader - 2163-02_Inhibitor_Dose_CherryPick_Activity.; assay type: functional, Mycobacterium tuberculosis UT205
T1 sequence (P9WQ81 whole entry): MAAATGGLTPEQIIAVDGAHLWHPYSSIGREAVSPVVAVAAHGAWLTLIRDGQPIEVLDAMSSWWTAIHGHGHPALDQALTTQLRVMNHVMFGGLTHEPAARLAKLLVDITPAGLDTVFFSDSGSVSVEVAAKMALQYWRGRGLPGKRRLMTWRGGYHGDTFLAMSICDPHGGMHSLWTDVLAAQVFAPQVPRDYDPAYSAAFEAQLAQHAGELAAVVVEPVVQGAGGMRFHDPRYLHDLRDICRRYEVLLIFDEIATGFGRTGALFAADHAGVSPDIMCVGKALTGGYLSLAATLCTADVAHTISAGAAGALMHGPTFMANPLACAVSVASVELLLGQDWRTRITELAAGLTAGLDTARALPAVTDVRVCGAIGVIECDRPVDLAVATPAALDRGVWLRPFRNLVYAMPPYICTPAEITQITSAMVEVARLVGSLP

[2] = molecular target: Nuclear receptor subfamily 5 group A member 2 (Homo sapiens, UniProt O00482); assay type: functional, cell-based;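 note: HEK293T cells transfected with LRH-1 and a StAR promoter luciferase reporter; potency for inhibitors that lower LRH-1 driven reporter light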
Steroidogenic factor 1 = Steroidogenic factor 1 (Homo sapiens, UniProt Q13285); assay: Counterscreen for inverse agonists of the liver receptor homolog-1 (LRH-1; NR5A2): Luminescence-based cell-based high throughput dose response assay to identify inverse agonists of the Steroidogenic Factor 1 Nuclear Receptor (SF1; NR5A1).; assay type: functional
[3] = nonselective StAR promoter luciferase inhibitors – cell-based, luminescence, luciferase reporter, counter-screen for LRH-1 inverse agonist project, dose response (AID 651969); assay type: functional
[4] = intracellular Trypanosoma cruzi inhibitors in host cells – cell-based, plate reader, cherry-pick samples, set 3, dose response (AID 651818); assay type: functional;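 note: compounds incubated with infected cells for about four days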
[5] = activation of miR-122 Renilla sensor silencing – cell-based, Huh7 psiCHECK-miR122, Renilla luciferase, cherry-picked, dose response (AID 651956); assay type: functional;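 note: huh7 hepatoma cells stably carrying a psiCHECK-2 miR-122 sensor plasmid; renilla luciferase signal reporting endogenous miR-122 activity after 48 h compound exposure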
[6] = Fluorescence-based cell-based high throughput dose response assay for inhibitors of the interaction of nucleotide-binding oligomerization domain containing 2 (NOD2) and the receptor-interacting serine-threonine kinase 2 (RIPK2).; assay type: functional; details: Homo sapiens
[7] = molecular target: T2, Microphthalmia-associated transcription factor (Homo sapiens, UniProt O75030); assay: reducers of TRPM1 reporter luminescence, concentration series – cell-based, SK-MEL-5, cherry-picked, set 3, MITF inhibitor project, dose response (AID 493073); assay type: functional;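 note: SK-MEL-5 melanoma cells with luciferase driven by the MITF target TRPM1 promoter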
T2 sequence (O75030 whole entry): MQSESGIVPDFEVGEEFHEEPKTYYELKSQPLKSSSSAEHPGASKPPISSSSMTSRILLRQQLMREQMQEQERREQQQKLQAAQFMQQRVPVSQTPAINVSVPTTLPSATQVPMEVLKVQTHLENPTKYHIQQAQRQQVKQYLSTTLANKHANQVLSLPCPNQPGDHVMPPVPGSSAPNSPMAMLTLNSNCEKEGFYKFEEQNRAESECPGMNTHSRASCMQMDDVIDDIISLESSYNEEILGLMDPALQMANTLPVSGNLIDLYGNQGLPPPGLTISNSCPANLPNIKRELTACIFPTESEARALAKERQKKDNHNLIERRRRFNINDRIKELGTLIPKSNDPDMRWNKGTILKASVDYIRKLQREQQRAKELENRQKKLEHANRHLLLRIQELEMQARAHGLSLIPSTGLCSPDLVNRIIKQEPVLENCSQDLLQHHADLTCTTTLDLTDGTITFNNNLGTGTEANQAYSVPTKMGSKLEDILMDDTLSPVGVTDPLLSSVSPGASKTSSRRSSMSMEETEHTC

[8] = A549 cell cytotoxicity, dose response, cytotoxicity control, plate reader, cherry-pick, antagonist series (AID 743412); assay type: functional, cell-based
[9] = toxicity toward HepG2 liver cells – cell-based, plate reader, cherry-pick, antagonist series, cytotoxicity control, dose response (AID 743416); assay type: functional
[10] = blockers of bursicon-stimulated LGR2 cAMP reporter – cell-based, HEK293, CRE-luciferase reporter, cherry pick, set 2, dose response (AID 743343); assay type: functional;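 note: transfected cells were stimulated with diluted bursicon conditioned medium after compound addition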
[11] = blockade of melanocortin 4 receptor signaling – cell-based, plate reader, cherry pick, counter-screen for LGR2 antagonist project, dose response (AID 743444); assay type: functional;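 note: transfected HEK 293 cells stimulated with alpha-MSH peptide; potency of inhibitors of the alpha-MSH evoked signal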
[12] = viability loss in HEK293 cells – cell-based, plate reader, cherry-picked samples, cytotoxicity control, dose response (AID 743446); assay type: functional
[13] = Luminescence Cell-Based Dose Retest to Confirm Inhibitors of Cancer Stem Cells. [Related pubchem assays (depositor defined):AID2717, AID2721]; assay type: functional; details: Homo sapiens
[14] = molecular target: Photoreceptor-specific nuclear receptor (Homo sapiens, UniProt Q9Y5X4); assay type: functional, cell-based;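 note: CHO-S cells with Gal4-NCOR and VP16-NR2E3 two-hybrid luciferase reporter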
Photoreceptor-specific nuclear receptor, sequence (Q9Y5X4 whole entry, the tested form may be a part): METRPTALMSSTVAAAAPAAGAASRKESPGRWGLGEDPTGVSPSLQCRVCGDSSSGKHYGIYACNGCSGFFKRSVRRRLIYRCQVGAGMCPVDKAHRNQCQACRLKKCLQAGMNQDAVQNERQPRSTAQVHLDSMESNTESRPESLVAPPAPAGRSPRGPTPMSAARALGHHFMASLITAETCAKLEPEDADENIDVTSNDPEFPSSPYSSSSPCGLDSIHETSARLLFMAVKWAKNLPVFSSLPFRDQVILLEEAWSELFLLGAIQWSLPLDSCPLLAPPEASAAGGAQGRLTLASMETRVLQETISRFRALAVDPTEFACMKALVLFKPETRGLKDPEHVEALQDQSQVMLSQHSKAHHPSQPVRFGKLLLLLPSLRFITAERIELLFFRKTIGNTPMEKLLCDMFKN

Steroidogenic factor 1, sequence (Q13285 whole entry): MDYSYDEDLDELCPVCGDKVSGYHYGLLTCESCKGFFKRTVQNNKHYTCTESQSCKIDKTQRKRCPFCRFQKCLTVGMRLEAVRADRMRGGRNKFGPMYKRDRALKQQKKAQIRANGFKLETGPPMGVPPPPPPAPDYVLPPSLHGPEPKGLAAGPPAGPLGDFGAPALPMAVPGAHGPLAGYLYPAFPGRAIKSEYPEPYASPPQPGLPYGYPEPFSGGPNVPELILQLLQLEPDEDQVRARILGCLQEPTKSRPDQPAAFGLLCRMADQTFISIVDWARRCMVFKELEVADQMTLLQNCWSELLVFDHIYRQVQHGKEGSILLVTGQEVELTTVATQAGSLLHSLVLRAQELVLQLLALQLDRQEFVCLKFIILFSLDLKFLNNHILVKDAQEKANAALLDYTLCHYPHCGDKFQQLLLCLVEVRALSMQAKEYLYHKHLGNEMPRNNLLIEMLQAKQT
Nuclear receptor subfamily 5 group A member 2, sequence (O00482 whole entry): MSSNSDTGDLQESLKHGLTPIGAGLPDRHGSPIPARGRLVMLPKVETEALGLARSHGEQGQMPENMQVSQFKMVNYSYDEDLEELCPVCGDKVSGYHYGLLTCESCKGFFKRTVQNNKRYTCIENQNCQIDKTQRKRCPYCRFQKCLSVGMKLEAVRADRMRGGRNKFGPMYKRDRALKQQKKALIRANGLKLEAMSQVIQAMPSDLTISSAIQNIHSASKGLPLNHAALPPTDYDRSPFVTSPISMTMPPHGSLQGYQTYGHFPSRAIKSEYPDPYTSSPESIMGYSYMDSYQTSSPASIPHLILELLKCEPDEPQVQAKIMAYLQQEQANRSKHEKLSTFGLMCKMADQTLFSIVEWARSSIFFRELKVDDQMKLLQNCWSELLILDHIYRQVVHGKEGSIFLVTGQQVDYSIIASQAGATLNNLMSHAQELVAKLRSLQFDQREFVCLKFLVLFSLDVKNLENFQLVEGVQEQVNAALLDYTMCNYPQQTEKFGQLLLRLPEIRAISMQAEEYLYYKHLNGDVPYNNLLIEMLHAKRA

## COC(=O)C1CCN(C(c2ccc(OC)c(OC)c2)c2sc3nc(C)nn3c2O)CC1 (stereo unspecified)
[1]
  AC50: 17.4 µM (active)

## COC(=O)c1ccc(NC(=O)COc2cccc(-n3cnnn3)c2)cc1
[2]
  IC50: 35.9 µM (inactive)
Steroidogenic factor 1
  IC50: 35.9 µM (inactive)
[3]
  IC50: 35.9 µM (inactive)

## C[C@H](CO)N1C[C@H](C)[C@H](CN(C)Cc2ccc(C(=O)Nc3ccccc3N)cc2)Oc2ccc(NS(=O)(=O)c3ccc(Cl)cc3)cc2CC1=O
[4]
  AC50: 1.91 µM (active)

## C[C@@H]1CN([C@@H](C)CO)C(=O)c2cccc(NC(=O)CCCCCC(=O)Nc3ccccc3N)c2O[C@H]1CN(C)CC1CCCCC1
[4]
  AC50: 3.58 µM (active)

## C[C@@H]1CN([C@H](C)CO)S(=O)(=O)c2ccc(C3=CCCC3)cc2O[C@@H]1CN(C)C(=O)Cc1ccncc1
[5]
  AC50: 5.84 µM (active)

## CCOC(=O)c1c(SCCN2CCCC2)n(-c2ccccc2)c(=S)n(-c2ccccc2)c1=O
[6]
  IC50: 1.09 µM (active)

## Cc1cc(Br)ccc1NC(=O)CNC(=O)Cn1ncc(Cl)c(Cl)c1=O
[7]
  AC50: 7.47 µM (active)
[6]
  IC50: 1.84 µM (active)
[8]
  AC50: 3.92 µM (active)
[9]
  AC50: > 52 µM (inactive)
[10]
  AC50: 4.51 µM (active)
[11]
  AC50: 5.41 µM (active)
[12]
  AC50: 4.54 µM (active)

## COc1cc(OC)cc(-c2oc3cccnc3c2C#CCCO)c1
[2]
  IC50: 1.87 µM (active)
Steroidogenic factor 1
  IC50: 0.443 µM (active)
[3]
  IC50: 27.3 µM (inactive)

## N#Cc1c(-c2ccccc2)cc(-c2ccccc2)nc1SCCC(=O)O
[13]
  AC50: 1.6 µM (active)
[14]
  IC50: 12.7 µM (inactive)

## O=C(NC1CCCc2c1cnn2-c1cc(F)cc(F)c1)c1ccc[n+]([O-])c1 (stereo unspecified)
[1]
  AC50: 4.29 µM (active)

From ChEMBL document CHEMBL1201862, “PubChem BioAssay data set” (2004)
